# Measured values reported in ChEMBL document CHEMBL2375251, “Anticancer activity of novel hybrid molecules containing 5-benzylidene thiazolidine-2,4-dione” (Eur J Med Chem, 2013).
# Active and inactive are the calls of the source. The rule behind the calls is not given here.
# Legend:
# MOLT-3 [1] = assay: Induction of apoptosis in human MOLT3 cells assessed as caspase 3/7-mediated DEVD-pNA cleavage at 1 uM after 6 hrs by colorimetric assay relative to control; format: functional
# U-937 [2] = assay: Induction of apoptosis in human U937 cells assessed as caspase 3/7-mediated DEVD-pNA cleavage at 1 uM after 6 hrs by colorimetric assay relative to control; format: functional
# HL-60 [3] = assay: Induction of apoptosis in human HL60 cells assessed as caspase 3/7-mediated DEVD-pNA cleavage at 1 uM after 6 hrs by colorimetric assay relative to control; format: functional
# MOLT-3 [4] = assay: Induction of apoptosis in human MOLT3 cells assessed as caspase9-mediated LEHD-pNA cleavage at 1 uM after 6 hrs by colorimetric assay; format: functional, cell-based
# U-937 [5] = assay: Induction of apoptosis in human U937 cells assessed as caspase9-mediated LEHD-pNA cleavage at 1 uM after 6 hrs by colorimetric assay; format: functional, cell-based
# HL-60 [6] = assay: Induction of apoptosis in human HL60 cells assessed as caspase9-mediated LEHD-pNA cleavage at 1 uM after 6 hrs by colorimetric assay; format: functional, cell-based
# MOLT-3 [7] = assay: Induction of apoptosis in human MOLT3 cells assessed as caspase 8-mediated IETD-pNA cleavage at 1 uM after 6 hrs by colorimetric assay; format: functional, cell-based
# U-937 [8] = assay: Induction of apoptosis in human U937 cells assessed as caspase 8-mediated IETD-pNA cleavage at 1 uM after 6 hrs by colorimetric assay; format: functional, cell-based
# MOLT-3 [9] = assay: Induction of apoptosis in human MOLT3 cells assessed as caspase 3/7-mediated DEVD-pNA cleavage at 1 uM after 6 hrs by colorimetric assay; format: functional, cell-based
# HL-60 [10] = assay: Induction of apoptosis in human HL60 cells assessed as caspase 8-mediated IETD-pNA cleavage at 1 uM after 6 hrs by colorimetric assay; format: functional, cell-based
# U-937 [11] = assay: Induction of apoptosis in human U937 cells assessed as caspase 3/7-mediated DEVD-pNA cleavage at 1 uM after 6 hrs by colorimetric assay; format: functional, cell-based
# HL-60 [12] = assay: Induction of apoptosis in human HL60 cells assessed as caspase 3/7-mediated DEVD-pNA cleavage at 1 uM after 6 hrs by colorimetric assay; format: functional, cell-based
# MOLT-3 [13] = assay: Induction of apoptosis in human MOLT3 cells assessed as cytochrome c release at 1 uM after 6 hrs by Western blot analysis; format: functional, cell-based
# U-937 [14] = assay: Induction of apoptosis in human U937 cells assessed as cytochrome c release at 1 uM after 6 hrs by Western blot analysis; format: functional, cell-based
# HL-60 [15] = assay: Induction of apoptosis in human HL60 cells assessed as cytochrome c release at 1 uM after 6 hrs by Western blot analysis; format: functional, cell-based
# MOLT-3 [16] = assay: Induction of apoptosis in human MOLT3 cells assessed as caspase-3-mediated PARP hydrolysis at 1 uM after 6 hrs by Western blot analysis; format: functional, cell-based
# U-937 [17] = assay: Induction of apoptosis in human U937 cells assessed as caspase-3-mediated PARP hydrolysis at 1 uM after 6 hrs by Western blot analysis; format: functional, cell-based
# HL-60 [18] = assay: Induction of apoptosis in human HL60 cells assessed as caspase-3-mediated PARP hydrolysis at 1 uM after 6 hrs by Western blot analysis; format: functional, cell-based
# MOLT-3 [19] = assay: Induction of apoptosis in human MOLT3 cells assessed as procaspase-9 activation at 1 uM after 6 hrs by Western blot analysis; format: functional, cell-based
# U-937 [20] = assay: Induction of apoptosis in human U937 cells assessed as procaspase-9 activation at 1 uM after 6 hrs by Western blot analysis; format: functional, cell-based
# HL-60 [21] = assay: Induction of apoptosis in human HL60 cells assessed as procaspase-9 activation at 1 uM after 6 hrs by Western blot analysis; format: functional, cell-based
# MOLT-3 [22] = assay: Induction of apoptosis in human MOLT3 cells assessed as procaspase-8 activation at 1 uM after 6 hrs by Western blot analysis; format: functional, cell-based
# U-937 [23] = assay: Induction of apoptosis in human U937 cells assessed as procaspase-8 activation at 1 uM after 6 hrs by Western blot analysis; format: functional, cell-based
# HL-60 [24] = assay: Induction of apoptosis in human HL60 cells assessed as procaspase-8 activation at 1 uM after 6 hrs by Western blot analysis; format: functional, cell-based
# MOLT-3 [25] = assay: Induction of apoptosis in human MOLT3 cells assessed as procaspase-7 activation at 1 uM after 6 hrs by Western blot analysis; format: functional, cell-based
# U-937 [26] = assay: Induction of apoptosis in human U937 cells assessed as procaspase-6 activation at 1 uM after 6 hrs by Western blot analysis; format: functional, cell-based
# HL-60 [27] = assay: Induction of apoptosis in human HL60 cells assessed as procaspase-6 activation at 1 uM after 6 hrs by Western blot analysis; format: functional, cell-based
# MOLT-3 [28] = assay: Induction of apoptosis in human MOLT3 cells assessed as procaspase-3 activation at 1 uM after 6 hrs by Western blot analysis; format: functional, cell-based
# U-937 [29] = assay: Induction of apoptosis in human U937 cells assessed as procaspase-3 activation at 1 uM after 6 hrs by Western blot analysis; format: functional, cell-based
# HL-60 [30] = assay: Induction of apoptosis in human HL60 cells assessed as procaspase-3 activation at 1 uM after 6 hrs by Western blot analysis; format: functional, cell-based
# HL-60 [31] = assay: Induction of apoptosis in human HL60 cells assessed as hypodiploid DNA content at 3 uM after 6 hrs by propidium iodide staining-based flow cytometry relative to control; format: functional
# MOLT-3 [32] = assay: Induction of apoptosis in human MOLT3 cells assessed as chromatin hydrolysis at 1 uM after 6 hrs by agarose gel electrophoresis; format: functional, cell-based
# U-937 [33] = assay: Induction of apoptosis in human U937 cells assessed as chromatin hydrolysis at 1 uM after 6 hrs by agarose gel electrophoresis; format: functional, cell-based
# HL-60 [34] = assay: Induction of apoptosis in human HL60 cells assessed as chromatin hydrolysis at 1 uM after 6 hrs by agarose gel electrophoresis; format: functional, cell-based
# U-937 [35] = assay: Induction of apoptosis in human U937 cells assessed as appearance of apoptotic bodies at 1 uM after 6 hrs by Hoechst 33258 staining based fluorescence microscopy; format: functional, cell-based
# U-937 [36] = assay: Induction of apoptosis in human U937 cells assessed as chromatin condensation at 1 uM after 6 hrs by Hoechst 33258 staining based fluorescence microscopy; format: functional, cell-based
# HL-60 [37] = assay: Induction of apoptosis in human HL60 cells assessed as appearance of apoptotic bodies at 1 uM after 6 hrs by Hoechst 33258 staining based fluorescence microscopy; format: functional, cell-based
# HL-60 [38] = assay: Induction of apoptosis in human HL60 cells assessed as chromatin condensation at 1 uM after 6 hrs by Hoechst 33258 staining based fluorescence microscopy; format: functional, cell-based
# MOLT-3 [39] = assay: Cytotoxicity against human MOLT3 cells after 4 hrs by MTT assay; format: functional, cell-based
# U-937 [40] = assay: Cytotoxicity against human U937 cells after 4 hrs by MTT assay; format: functional, cell-based
# HL-60 [41] = assay: Cytotoxicity against human HL60 cells after 4 hrs by MTT assay; format: functional, cell-based
# HeLa = assay: Cytotoxicity against human HeLa cells after 4 days by Coulter counter analysis; format: functional, cell-based; conditions: 96 h
# CCRF-CEM = assay: Cytotoxicity against human CEM cells after 3 days by Coulter counter analysis; format: functional, cell-based; conditions: 72 h
# FM3A = assay: Cytotoxicity against mouse FM3A cells after 2 days by Coulter counter analysis; format: functional, cell-based; conditions: 48 h
# L1210 = assay: Cytotoxicity against mouse L1210 cells after 2 days by Coulter counter analysis; format: functional, cell-based; conditions: L1210, 48 h
# U-937 [42] = assay: Induction of apoptosis in human U937 cells assessed as procaspase-7 activation at 1 uM after 6 hrs by Western blot analysis; format: functional, cell-based
# HL-60 [43] = assay: Induction of apoptosis in human HL60 cells assessed as procaspase-7 activation at 1 uM after 6 hrs by Western blot analysis; format: functional, cell-based
# MOLT-3 [44] = assay: Induction of apoptosis in human MOLT3 cells assessed as procaspase-6 activation at 1 uM after 6 hrs by Western blot analysis; format: functional, cell-based
# U-937 [45] = assay: Induction of apoptosis in human U937 cells assessed as hypodiploid DNA content at 3 uM after 6 hrs by propidium iodide staining-based flow cytometry relative to control; format: functional
structure (smiles),measurement,setting,value
C=C(Br)C(=O)Nc1cccc(/C=C2\SC(=O)N(Cc3ccc(F)cc3)C2=O)c1,fold change (FC),MOLT-3 [1],>2
same,fold change (FC),U-937 [2],>10
same,fold change (FC),HL-60 [3],>5
same,Activity,MOLT-3 [4],Active
same,Activity,U-937 [5],Active
same,Activity,HL-60 [6],Active
same,Activity,MOLT-3 [7],Active
same,Activity,U-937 [8],Active
same,Activity,MOLT-3 [9],Active
same,Activity,HL-60 [10],Active
same,Activity,U-937 [11],Active
same,Activity,HL-60 [12],Active
same,Activity,MOLT-3 [13],Active
same,Activity,U-937 [14],Active
same,Activity,HL-60 [15],Active
same,Activity,MOLT-3 [16],Active
same,Activity,U-937 [17],Active
same,Activity,HL-60 [18],Active
same,Activity,MOLT-3 [19],Active
same,Activity,U-937 [20],Active
same,Activity,HL-60 [21],Active
same,Activity,MOLT-3 [22],Active
same,Activity,U-937 [23],Active
same,Activity,HL-60 [24],Active
same,Activity,MOLT-3 [25],Active
same,Activity,U-937 [26],Active
same,Activity,HL-60 [27],Active
same,Activity,MOLT-3 [28],Active
same,Activity,U-937 [29],Active
same,Activity,HL-60 [30],Active
same,fold change (FC),HL-60 [31],12
same,Activity,MOLT-3 [32],inactive
same,Activity,U-937 [33],Active
same,Activity,HL-60 [34],Active
same,Activity,U-937 [35],Active
same,Activity,U-937 [36],Active
same,Activity,HL-60 [37],Active
same,Activity,HL-60 [38],Active
same,Activity,MOLT-3 [39],Dose-dependent effect
same,IC50,"MOLT-3 [39]; MOLT-3, 4 h",640 nM
same,Activity,U-937 [40],Dose-dependent effect
same,IC50,"U-937 [40]; U-937, 4 h",530 nM
same,Activity,HL-60 [41],Dose-dependent effect
same,IC50,"HL-60 [41]; HL-60, 4 h",770 nM
same,IC50,HeLa,800 nM
same,IC50,CCRF-CEM,680 nM
same,IC50,FM3A,920 nM
same,IC50,L1210,680 nM
same,Activity,U-937 [42],Active
same,Activity,HL-60 [43],Active
same,Activity,MOLT-3 [44],Active
same,fold change (FC),U-937 [45],4
